# In ChEMBL document CHEMBL4689842, “EUbOPEN Chemogenomics Library wave 1” (2021):
# System: Fibroblast
# Test: Incucyte cell viability with human fibroblast; further: filed as whole numbers so only -1 and 0 and 1 occur
# Assay type: toxicity, cell-based
# Conditions: 10 µM, compound concentration 10 uM
# [1] = 0 h, replicate number 2, timepoint 0 hours
# [2] = 6 h, replicate number 1, timepoint 6 hours
# [3] = 12 h, replicate number 1, timepoint 12 hours
# [4] = 18 h, replicate number 1, timepoint 18 hours
# [5] = 24 h, replicate number 1, timepoint 24 hours
# [6] = 0 h, replicate number 1, timepoint 0 hours
# [7] = 6 h, replicate number 2, timepoint 6 hours
# [8] = 12 h, replicate number 2, timepoint 12 hours
# [9] = 24 h, replicate number 2, timepoint 24 hours
# [10] = 18 h, replicate number 2, timepoint 18 hours
SMILES,Growth Rate [1],Growth Rate [2],Growth Rate [3],Growth Rate [4],Growth Rate [5],Growth Rate [6],Growth Rate [7],Growth Rate [8],Growth Rate [9],Growth Rate [10]
c1cn2cc(-c3ccc4cn[nH]c4c3)nc(Nc3ccc(N4CCOCC4)cc3)c2n1 [ENTOSPLETINIB],0,0,0,0,0,,,,,
Cc1nc(-c2cn3c(n2)-c2ccc(-c4cnn(C(C)(C)C(N)=O)c4)cc2OCC3)n(C(C)C)n1 [TASELISIB],1,0,0,0,0,0,,,,
Cc1nc(Nc2n[nH]c3c2CN(C(=O)N[C@H](CN(C)C)c2ccccc2)C3(C)C)c2sccc2n1 [PF-03758309],0,0,0,0,0,,,,,
CC(C)NCC(O)COc1ccc(CCOCC2CC2)cc1.Cl (stereo not drawn) [BETAXOLOL HYDROCHLORIDE],,0,0,0,0,0,,,,
Cn1cc(-c2[nH]c3cc(NC(=O)[C@H](N)C4CCCCC4)cc4c3c2C=NNC4=O)cn1,,,,1,1,0,,,,
Cn1c(-c2csc(C3CCN(CC4=NC5N=CC=CC5N4)CC3)n2)nc2ccccc21 (stereo not drawn) [BAY-070],1,0,1,1,1,,,,,
CN1C(=O)c2sccc2N(C)c2nc(Nc3ccc(S(N)(=O)=O)cc3)ncc21,,1,0,0,0,0,0,1,1,
CN1CCCC(n2nc(Cc3ccc(Cl)cc3)c3ccccc3c2=O)CC1.Cl (stereo not drawn) [AZELASTINE HYDROCHLORIDE],,,1,1,0,0,0,0,,0
COc1cccc([C@@H](C)NCCCc2ccccc2Cl)c1.Cl [TECALCET HYDROCHLORIDE],,,1,1,1,0,0,0,0,0
Cc1nc(-c2ccc(-c3ccc(C(=O)N4CCc5cc6c(cc54)C4(CCN(C)CC4)CO6)cc3)c(C)c2)no1 [SB-224289],,,0,0,0,0,0,,,
COc1ccc(Oc2cc(NCCC(F)(F)F)c3ncc(-c4ccc(C(=O)NC5CC5)c(C)c4)n3n2)c(F)c1F [BAY-1217389],1,0,0,0,0,,,,,
Cc1c(-c2ccc(O)cc2)n(Cc2ccc(OCCN3CCCCCC3)cc2)c2ccc(O)cc12 [BAZEDOXIFENE],,0,0,0,0,0,,,,
CN1CCN(c2ccc(OC(F)(F)F)c(Nc3ncc4c(n3)-c3c(c(C(N)=O)nn3CCO)CC4)c2)CC1 [ONVANSERTIB],,0,0,0,0,,,,,
C=CC(=O)Nc1cccc(C(=O)Nc2ccc(Nc3cc(-c4[nH]c(SC)nc4C)ccn3)cc2)c1,,,0,1,1,0,1,1,,
CNCc1ccccc1-c1csc([C@H](C)Nc2nc(C)nc3cc(OC)c(OC)cc23)c1 [BAY-294],,0,0,0,0,,,,,
CN(C)C(=O)/C(C#N)=C/c1ccc(-c2nc3cnc4[nH]ccc4c3n2C2CCCCC2)o1,0,1,0,0,0,,,,,1
Cn1cncc1[C@@](O)(COc1ccc(C#N)cc1-c1ccc(OC(F)(F)F)cc1)c1ccc(C#N)cc1 [A-108],,0,0,0,0,1,,,,
CC[C@H](C)C(=O)O[C@H]1C[C@@H](C)C=C2C=C[C@H](C)[C@H](CC[C@@H]3C[C@@H](O)CC(=O)O3)[C@H]21 [LOVASTATIN],,1,1,1,1,0,,,,
Cn1cc(C2=C(c3cn(C4CCN(Cc5ccccn5)CC4)c4ccccc34)C(=O)NC2=O)c2ccccc21 [ENZASTAURIN],,0,0,0,0,,,,,
Cl.N#Cc1ccc2[nH]cc(CCCCN3CCN(c4ccc5oc(C(N)=O)cc5c4)CC3)c2c1 [VILAZODONE HYDROCHLORIDE],,,1,0,0,0,0,0,,
Cc1cc(C)cc(-c2cnc3cc(Cl)c(-c4cccc(O)c4)cc3c2OCCCN)c1,,0,0,0,0,0,,,,
CCOCCn1cc(C(=O)Nc2ccc(-n3nc(-c4cccnc4)cc3C(F)(F)F)cn2)ccc1=O [BI 1935],0,1,0,0,0,,,1,1,
O=C1NCN(c2ccccc2)C12CCN(CCCOc1ccc(F)cc1)CC2 [SPIRAMIDE],,0,0,0,0,1,,,,
CCn1c(=O)c(-c2ccc(Cl)cc2Cl)cc2cnc(Nc3ccc(N4CCNCC4)c(F)c3)nc21,,0,0,0,0,0,,,,
Cc1[nH]c(/C=C2\C(=O)Nc3ccc(S(=O)(=O)N(C)c4cccc(Cl)c4)cc32)c(C)c1C(=O)N1CCN(C)CC1,,,,1,1,0,,,,
COc1cc2nccc(Oc3ccc(NC(=O)Nc4cc(C)on4)c(Cl)c3)c2cc1OC.O,,0,0,0,0,0,1,,,
